Measurements reported in PubChem BioAssay (NCI).
Several values for one entry are separate records, joined by “and”; a condition that tells them apart may be missing. Equal entries are not always repeated.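 A five-concentration, 48-hour dose response in 96-well plates underlies each endpoint, interpolated linearly between surrounding concentrations. TGI: concentration producing complete growth inhibition.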

Legend:
Assay in all cases: growth of human tumour cells (NCI), 48 h
HT29 colon = tested on: HT29 colon
KM12 colon = tested on: KM12 colon
LOX IMVI melanoma = tested on: LOX IMVI melanoma
U251 CNS = tested on: U251 CNS
CCRF-CEM leukemia = tested on: CCRF-CEM leukemia
SK-MEL-28 melanoma = tested on: SK-MEL-28 melanoma
OVCAR-4 ovarian = tested on: OVCAR-4 ovarian
SK-MEL-5 melanoma = tested on: SK-MEL-5 melanoma
MOLT-4 leukemia = tested on: MOLT-4 leukemia
SNB-19 CNS = tested on: SNB-19 CNS
EKVX NSCLC = tested on: EKVX NSCLC
COLO 205 colon = tested on: COLO 205 colon
CAKI-1 renal = tested on: CAKI-1 renal
NCI-H522 lung = tested on: NCI-H522 lung
DU-145 prostate = tested on: DU-145 prostate
PC-3 prostate = tested on: PC-3 prostate
HS 578T breast = tested on: HS 578T breast
MDA-MB-435 = tested on: MDA-MB-435
T-47D breast = tested on: T-47D breast

| SMILES | TGI (HT29 colon) | TGI (KM12 colon) | TGI (LOX IMVI melanoma) | TGI (U251 CNS) | TGI (CCRF-CEM leukemia) | TGI (SK-MEL-28 melanoma) | TGI (OVCAR-4 ovarian) | TGI (SK-MEL-5 melanoma) | TGI (MOLT-4 leukemia) | TGI (SNB-19 CNS) | TGI (EKVX NSCLC) | TGI (COLO 205 colon) | TGI (CAKI-1 renal) | TGI (NCI-H522 lung) | TGI (DU-145 prostate) | TGI (PC-3 prostate) | TGI (HS 578T breast) | TGI (MDA-MB-435) | TGI (T-47D breast) |
| --- | --- | --- | --- | --- | --- | --- | --- | --- | --- | --- | --- | --- | --- | --- | --- | --- | --- | --- | --- |
| COc1cc(C2c3cc4c(cc3[C@@H](NCCN3CCCCC3)C3COC(=O)[C@H]23)OCO4)cc(OC)c1O (stereo partly specified) | 3.56 µM | 3.8 µM and 3.88 µM | 1.72 µM and 1.61 µM | 1.44 µM and 1.62 µM | 0.36 µM and 0.465 µM | 7.22 µM and 11.4 µM | > 100 µM | 1.93 µM and 2.19 µM | 0.0735 µM and 0.0311 µM | > 100 µM and 36.7 µM | 5.28 µM and 5.71 µM | > 100 µM |  |  |  |  |  |  |  |
| Cc1cccc(NC(=O)c2cc3cc(N=Nc4ccccc4Cl)ccc3oc2=O)c1 | > 100 µM | 48.4 µM | 27.4 µM | > 100 µM | > 100 µM | > 100 µM | > 100 µM | 47.1 µM | > 100 µM | > 100 µM | > 100 µM | > 100 µM | > 100 µM | 56.8 µM |  |  |  |  |  |
| COc1cc2c(cc1OC)CC(=O)c1cc(OC)c(OC)cc1/C=C\2 | > 12.5 µM | > 12.5 µM | > 12.5 µM | > 12.5 µM | > 12.5 µM | > 12.5 µM | > 12.5 µM | > 12.5 µM | > 12.5 µM | > 12.5 µM | > 12.5 µM | > 12.5 µM | > 12.5 µM | > 12.5 µM | > 12.5 µM | > 12.5 µM | > 12.5 µM | > 12.5 µM |  |
| CCN1CN(c2ccccc2)C2(CCN(CCCSc3ccc(F)cc3)CC2)C1=O | 13.3 µM | 28.9 µM | 31.5 µM |  | 24.6 µM | 31 µM |  | 13.8 µM | 23.7 µM | 24.3 µM | 21.2 µM | 6.48 µM | 35.7 µM | 30 µM | 17.9 µM | 28.1 µM |  | 27.3 µM | 17.2 µM |
| CCn1c2ccccc2c2ccc3c(c21)C(=O)c1ccccc1C3=O | > 100 µM |  |  | > 100 µM | > 100 µM | > 100 µM | > 100 µM | > 100 µM | > 100 µM | > 100 µM | > 100 µM | > 100 µM |  | > 100 µM |  |  |  |  |  |
| C/C(=N\Nc1ccccc1Br)c1cccc(/C(C)=N/Nc2ccccc2Br)n1 | > 100 µM | > 100 µM | > 100 µM | > 100 µM | > 100 µM | > 100 µM | > 100 µM | > 100 µM | > 100 µM | > 100 µM | > 100 µM | > 100 µM | > 100 µM |  | > 100 µM | > 100 µM |  | > 100 µM |  |
| N#CCC(=O)c1cc(OCc2cc(OCc3ccc(Br)cc3)cc(OCc3ccc(Br)cc3)c2)cc(OCc2cc(OCc3ccc(Br)cc3)cc(OCc3ccc(Br)cc3)c2)c1 |  | > 100 µM |  | > 100 µM |  | > 100 µM | > 100 µM | > 100 µM |  | > 100 µM | > 100 µM | > 100 µM | > 100 µM | > 100 µM | > 100 µM | > 100 µM |  | > 100 µM | > 100 µM |
| CCC(CC)n1cc(C(=O)NC(=O)NCCCCCOC(=O)CCCCCCCCCCC(=O)OCCCCCNC(=O)NC(=O)c2cn(C(CC)CC)c(=O)[nH]c2=O)c(=O)[nH]c1=O | > 100 µM | > 100 µM | > 100 µM | > 100 µM | > 100 µM | > 100 µM | > 100 µM | > 100 µM | > 100 µM | > 100 µM | > 100 µM | > 100 µM | > 100 µM | > 100 µM |  |  |  |  |  |
| COc1ccc(-c2cc(-c3ccc(Nc4ccnc5cc(Cl)ccc45)cc3)nc(N)c2C#N)cc1 |  | > 100 µM | > 100 µM | > 100 µM |  | > 100 µM | > 100 µM |  | > 100 µM | > 100 µM | > 100 µM | > 100 µM | > 100 µM | > 100 µM | > 100 µM | > 100 µM |  | > 100 µM | > 100 µM |
| CC1(C)C2CCC(N)(C2)C1N (stereo unspecified) |  | > 100 µM | > 100 µM | > 100 µM | > 100 µM | > 100 µM | > 100 µM | > 100 µM | > 100 µM | > 100 µM | > 100 µM | > 100 µM | > 100 µM |  | > 100 µM | > 100 µM |  | > 100 µM | > 100 µM |
| C(=Nc1ccc(-c2cc(-c3ccccc3)nc3ccc4ccccc4c23)cc1)c1ccccc1 | 40.3 µM | 68 µM | > 100 µM | > 100 µM | > 100 µM | > 100 µM | 13.5 µM | 42.3 µM | > 100 µM | 58 µM | 92.8 µM | 42.6 µM | 75.4 µM |  | 68.6 µM | > 100 µM | 68.6 µM | 55.5 µM |  |
| CC(C)(C)[Si](C)(C)OCC1OC(n2ccc(=O)[nH]c2=O)C(O[Si](C)(C)C(C)(C)C)[C@@]12O[C@H]2C(N)=O (stereo partly specified) | 12.4 µM | 44.2 µM | 18.1 µM | 23.2 µM |  | > 100 µM | 89.5 µM | 16.5 µM | > 100 µM | 24.1 µM | 34.4 µM | 24.8 µM | 28.2 µM | 7.35 µM | 17.6 µM | 17.8 µM |  | 23.1 µM |  |
| O=C1NCCCC12CCCNC2=O | > 100 µM | > 100 µM | > 100 µM | > 100 µM | > 100 µM | > 100 µM |  | > 100 µM | > 100 µM | > 100 µM | > 100 µM | > 100 µM |  | > 100 µM |  |  |  |  |  |
| Nc1ccc(C(=O)NN2C(=O)C(Cl)C2c2cc(Br)ccc2O)cc1 (stereo unspecified) | > 100 µM | > 100 µM | > 100 µM | 90.3 µM | > 100 µM | > 100 µM | > 100 µM | > 100 µM |  | > 100 µM | > 100 µM | > 100 µM | > 100 µM | 38.5 µM |  |  |  |  |  |
| COc1ccc(C(Cc2cc(OC)c(OC)c(OC)c2)C(=O)O)cc1 (stereo unspecified) | > 100 µM | > 100 µM | > 100 µM | > 100 µM | > 100 µM | > 100 µM | > 100 µM | > 100 µM |  | > 100 µM | > 100 µM | > 100 µM | > 100 µM |  |  |  |  |  |  |
